Here are results for one compound from US8372379B2, “Technetium-99m (I) tricarbonyl complexes with tridentate chelators for myocardium imaging” (Mallinckrodt LLC, priority 2006, dated 2013).

This data set is described as follows: Biodistribution of 99mTc complexes in female CD-1 mice after intravenous injection. The conditions noted are these: i.v. It counts as in vivo. The protocol: These studies have been designed as a preliminary screening tool to evaluate the biological profile of the cationic tricarbonyl complexes. The biodistribution of the complexes was evaluated in groups of 5 female CD-1 mice (randomly bred, Charles River) weighing approximately 20-25 g each and have been performed according to EEC Legislation (National Law 129/92) on ethical and animal care. Animals were intravenously injected with 100 μL (1.5-8.0 MBq) of each preparation via the tail vein and were maintained on normal diet ad libitum. […] The injected radioactive dose and the radioactivity remaining in the animal after sacrifice were measured in a dose calibrator (Aloka, Curiemeter IGC-3, Tokyo, Japan). The difference between the radioactivity in the injected and sacrificed animal was assumed to be due to total excretion from whole body animal. Blood samples were taken by cardiac puncture at sacrifice. Tissue samples of the main organs were then removed, weighted and counted in a gamma counter (Berthold). Biodistribution results were expressed as percentage of the injected dose per organ (% ID/organ) and/or per gram tissue (% ID/g). For blood, total activity was calculated assuming that this organ constitutes 6% of the total weight, respectively. The remaining activity in the carcass was also measured in a dose calibrator.

Structures are written as SMILES.

On to `[C-]#[N+]CC(C)(C)OC.[C-]#[N+]CC(C)(C)OC.[C-]#[N+]CC(C)(C)OC.[C-]#[N+]CC(C)(C)OC.[C-]#[N+]CC(C)(C)OC.[C-]#[N+]CC(C)(C)OC.[Tc]` [^99mTc-Sestamibi], for which, for the setting “5 min p.i.”, the Blood uptake is 2.0 ± 0.4 % ID/g of wet organ, the Heart uptake is recorded as 9.4 ± 0.4 % ID/g of wet organ, the Heart/Blood ratio was found to be 4.1 ± 0.7 and the Heart/Liver ratio was determined as 0.9 ± 0.2. Moreover, under “5 min p.i.”, the Heart/Lung ratio is 3.5 ± 0.8, the Kidney uptake is given as 34.2 ± 2.4 % ID/g of wet organ, the Liver uptake is reported as 9.0 ± 1.8 % ID/g of wet organ and the Lung uptake was 2.4 ± 0.6 % ID/g of wet organ. For the same compound, for the setting “1 h (60 min) p.i.”, the Blood uptake was 1.2 ± 0.4 % ID/g of wet organ, the Heart uptake is reported as 8.0 ± 0.6 % ID/g of wet organ, the Heart/Blood ratio amounted to 7.9 ± 3.6 and the Heart/Liver ratio was determined as 1.4 ± 0.1. Also, for the setting “1 h (60 min) p.i.”, the Heart/Lung ratio was determined as 6.3 ± 0.6, the Kidney uptake is on record as 14.8 ± 6.1 % ID/g of wet organ, the Liver uptake was 5.6 ± 0.3 % ID/g of wet organ and the Lung uptake was 1.3 ± 0.2 % ID/g of wet organ. Under “2 h (120 min) p.i.”, the Blood uptake is recorded as 1.1 ± 0.3 % ID/g of wet organ, the Heart uptake was 7.9 ± 1.0 % ID/g of wet organ, the Heart/Blood ratio is on record as 7.4 ± 2.3 and the Heart/Liver ratio is 1.8 ± 0.7. Besides, under “2 h (120 min) p.i.”, the Heart/Lung ratio is reported as 9.2 ± 1.1, the Kidney uptake is recorded as 9.7 ± 1.8 % ID/g of wet organ, the Liver uptake is recorded as 5.0 ± 2.1 % ID/g of wet organ and the Lung uptake is listed as 0.9 ± 0.2 % ID/g of wet organ.
